Results published in ChEMBL document CHEMBL1201862, “PubChem BioAssay data set” (2004).
Activity calls are given as the source filed them.

Columns and labels:
[1] = target: Protein-tyrosine kinase 2-beta (Homo sapiens, UniProt Q14289);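 further: potency of inhibitors of PYK2 kinase phosphorylation of poly-GT substrate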
[2] = target: T1, Replicative DNA helicase DnaB (Mycobacterium tuberculosis, UniProt P9WMR3); assay: DnaB intein splicing inhibitors, dose response, biochemical, cell-free fluorescence (AID 449749); assay type: functional
T1 sequence (P9WMR3 whole entry): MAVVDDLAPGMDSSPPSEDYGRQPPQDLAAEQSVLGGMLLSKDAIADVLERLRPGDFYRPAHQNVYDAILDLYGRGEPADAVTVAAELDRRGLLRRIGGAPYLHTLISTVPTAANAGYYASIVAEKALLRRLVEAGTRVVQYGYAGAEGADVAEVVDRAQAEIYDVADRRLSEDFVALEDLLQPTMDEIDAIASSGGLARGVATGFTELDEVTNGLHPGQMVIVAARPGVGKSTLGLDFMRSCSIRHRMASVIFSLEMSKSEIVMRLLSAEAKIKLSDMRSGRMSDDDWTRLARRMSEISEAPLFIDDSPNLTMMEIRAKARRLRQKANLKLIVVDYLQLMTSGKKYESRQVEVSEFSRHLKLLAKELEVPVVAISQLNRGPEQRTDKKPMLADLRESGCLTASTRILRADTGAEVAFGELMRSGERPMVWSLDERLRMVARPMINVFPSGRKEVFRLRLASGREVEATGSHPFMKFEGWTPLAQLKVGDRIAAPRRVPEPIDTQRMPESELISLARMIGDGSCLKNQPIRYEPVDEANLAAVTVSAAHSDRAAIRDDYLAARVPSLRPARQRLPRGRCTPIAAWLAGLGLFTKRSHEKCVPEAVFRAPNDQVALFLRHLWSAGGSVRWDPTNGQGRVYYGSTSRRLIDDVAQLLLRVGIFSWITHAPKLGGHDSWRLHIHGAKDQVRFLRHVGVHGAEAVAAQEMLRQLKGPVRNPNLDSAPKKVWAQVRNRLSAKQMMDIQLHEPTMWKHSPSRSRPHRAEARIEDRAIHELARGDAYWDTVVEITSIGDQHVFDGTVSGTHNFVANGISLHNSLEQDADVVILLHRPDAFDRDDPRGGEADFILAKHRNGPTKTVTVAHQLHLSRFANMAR

[3] = target: T2, Protein RecA (Mycobacterium tuberculosis, UniProt P9WHJ3); assay: Fluorescence Cell-Free Homogeneous Dose Retest to Identify Inhibitors of RecA-Intein Splicing Activity. [Related pubchem assays (depositor defined):AID2097, AID2223, AID489010, AID492950]; assay type: functional
T2 sequence (P9WHJ3 whole entry): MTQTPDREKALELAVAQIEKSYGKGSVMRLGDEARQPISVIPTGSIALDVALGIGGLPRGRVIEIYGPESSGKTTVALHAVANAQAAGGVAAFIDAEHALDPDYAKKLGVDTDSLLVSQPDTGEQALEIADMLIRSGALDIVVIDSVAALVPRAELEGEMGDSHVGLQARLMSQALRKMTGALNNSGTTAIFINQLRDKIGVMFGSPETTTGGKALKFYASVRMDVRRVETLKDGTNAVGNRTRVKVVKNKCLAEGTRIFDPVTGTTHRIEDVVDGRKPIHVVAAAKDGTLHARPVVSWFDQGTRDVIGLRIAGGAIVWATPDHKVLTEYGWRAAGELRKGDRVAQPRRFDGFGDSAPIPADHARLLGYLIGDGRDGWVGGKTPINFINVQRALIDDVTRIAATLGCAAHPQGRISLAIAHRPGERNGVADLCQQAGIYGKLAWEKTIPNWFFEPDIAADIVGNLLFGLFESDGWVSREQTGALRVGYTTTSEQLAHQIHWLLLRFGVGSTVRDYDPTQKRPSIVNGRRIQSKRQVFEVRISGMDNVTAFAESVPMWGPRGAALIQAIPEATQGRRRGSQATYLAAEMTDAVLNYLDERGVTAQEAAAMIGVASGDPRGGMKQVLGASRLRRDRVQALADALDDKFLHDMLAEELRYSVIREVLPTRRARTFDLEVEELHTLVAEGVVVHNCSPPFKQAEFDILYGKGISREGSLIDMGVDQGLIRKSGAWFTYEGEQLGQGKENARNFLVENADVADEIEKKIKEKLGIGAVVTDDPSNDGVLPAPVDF

[4] = viability loss in THP-1 monocytes – THP-1 cells, cytotoxicity control for Vif-APOBEC3G degradation inhibitor project, dose response (AID 1117359); assay type: functional; settings: THP-1
[5] = tested on: H9c2; assay: cells; assay type: functional, cell-based; settings: Rattus norvegicus, H9c2, Myocardium;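 further: confirmatory concentration-response retest of ultra-high-throughput screening hits for modulation of myocardial damage; cell death induced by hydrogen peroxide oxidative stress; compound pretreatment for 60 min then peroxide exposure for 2 h; potency is for protecting the cells against peroxide damage rather than for killing them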
[6] = target: T3, Short transient receptor potential channel 4 (Mus musculus, UniProt Q9QUQ5); assay: calcium entry via TRPC4 opening agents – cell-based, HEK293 TRPC4/mu-opioid, Fluo-4 calcium, dose response (AID 434937); assay type: functional
T3 sequence (Q9QUQ5 whole entry): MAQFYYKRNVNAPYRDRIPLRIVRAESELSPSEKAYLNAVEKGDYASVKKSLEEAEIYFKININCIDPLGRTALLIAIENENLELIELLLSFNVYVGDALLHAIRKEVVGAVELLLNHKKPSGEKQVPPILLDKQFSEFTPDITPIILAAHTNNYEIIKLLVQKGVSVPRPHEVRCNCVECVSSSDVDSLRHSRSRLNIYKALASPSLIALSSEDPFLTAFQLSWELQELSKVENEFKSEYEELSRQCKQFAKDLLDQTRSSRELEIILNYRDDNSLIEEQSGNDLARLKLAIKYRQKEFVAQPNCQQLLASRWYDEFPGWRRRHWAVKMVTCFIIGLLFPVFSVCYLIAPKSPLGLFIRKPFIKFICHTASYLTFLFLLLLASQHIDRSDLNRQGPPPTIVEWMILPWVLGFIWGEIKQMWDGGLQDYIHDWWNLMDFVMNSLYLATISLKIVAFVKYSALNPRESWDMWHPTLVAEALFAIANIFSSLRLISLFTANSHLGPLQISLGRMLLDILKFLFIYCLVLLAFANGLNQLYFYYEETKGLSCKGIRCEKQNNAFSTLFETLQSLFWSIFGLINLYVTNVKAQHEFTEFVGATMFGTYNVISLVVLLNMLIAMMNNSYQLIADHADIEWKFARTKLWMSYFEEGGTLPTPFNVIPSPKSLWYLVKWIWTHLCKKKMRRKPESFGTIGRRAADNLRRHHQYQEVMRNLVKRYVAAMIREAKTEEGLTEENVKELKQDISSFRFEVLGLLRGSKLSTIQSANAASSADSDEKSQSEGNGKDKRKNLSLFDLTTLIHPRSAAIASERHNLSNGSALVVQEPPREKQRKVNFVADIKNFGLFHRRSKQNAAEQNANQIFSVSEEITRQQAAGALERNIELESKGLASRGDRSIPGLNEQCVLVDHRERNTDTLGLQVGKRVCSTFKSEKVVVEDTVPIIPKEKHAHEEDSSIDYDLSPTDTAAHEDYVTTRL

[7] = target: Glucose-6-phosphate 1-dehydrogenase (Homo sapiens, UniProt P11413); assay: inhibition of Homo sapiens G6PD, dose series – biochemical, fluorescence, selectivity assay for P. falciparum G6PD inhibitor project, dose response (AID 504792); assay type: functional
[8] = tested on: HEK293; assay: inhibition of NOD1-driven NF-kB reporter – cell-based, luminescence, uHTS, primary screen (AID 1578); assay type: functional; settings: Homo sapiens
[9] = tested on: HEK293; assay: cells; assay type: functional, cell-based; settings: Homo sapiens
[10] = tested on: HEK293; assay: cells; assay type: functional, cell-based; settings: Homo sapiens; remark: listed apart in the source
[11] = tested on: HEK293; assay: NOD2 signaling inhibitors in MDP-stimulated cells, cell-based, uHTS, luminescence (AID 2001); assay type: functional; settings: Homo sapiens
[12] = reduction of Shn3 3'UTR-driven luciferase in osteoblasts – cell-based, Clone20 osteoblasts, firefly luciferase, cherry-picked, dose response (AID 624132); assay type: functional;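 further: firefly luciferase luminescence from reporter carrying the Shn3 3'UTR in osteoblasts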
[13] = loss of viability in HepG2 cells – cell-based, CellTiter-Glo, cherry-picked, cytotoxicity control for Shn3 inhibitor project, dose response (AID 624134); assay type: functional
[14] = luciferase reporter signal suppression in cells – H4 neuroglioma cells, luminescence, dose response (AID 1990); assay type: functional, cell-based
[15] = Luminescence Cell-Based Dose Response HTS to Identify Inhibitors of 5'UTR Stem-Loop Driven Prion Protein mRNA Translation in H4 Neuroglioblastoma Cells. [Related pubchem assays: 1827 (Project Summary), 1813 (Primary HTS)]; assay type: functional
[16] = alpha-synuclein stem-loop luciferase translation blockers – H4 neuroglioma cells, luminescence, confirmation (AID 1988); assay type: functional, cell-based
[17] = target: T4, High affinity choline transporter 1 (Homo sapiens, UniProt Q9GZV3); assay: human choline transporter blockers, potency – cell-based, 5-point CRC, membrane potential dye, dose response (AID 504840); assay type: functional
T4 sequence (Q9GZV3 whole entry): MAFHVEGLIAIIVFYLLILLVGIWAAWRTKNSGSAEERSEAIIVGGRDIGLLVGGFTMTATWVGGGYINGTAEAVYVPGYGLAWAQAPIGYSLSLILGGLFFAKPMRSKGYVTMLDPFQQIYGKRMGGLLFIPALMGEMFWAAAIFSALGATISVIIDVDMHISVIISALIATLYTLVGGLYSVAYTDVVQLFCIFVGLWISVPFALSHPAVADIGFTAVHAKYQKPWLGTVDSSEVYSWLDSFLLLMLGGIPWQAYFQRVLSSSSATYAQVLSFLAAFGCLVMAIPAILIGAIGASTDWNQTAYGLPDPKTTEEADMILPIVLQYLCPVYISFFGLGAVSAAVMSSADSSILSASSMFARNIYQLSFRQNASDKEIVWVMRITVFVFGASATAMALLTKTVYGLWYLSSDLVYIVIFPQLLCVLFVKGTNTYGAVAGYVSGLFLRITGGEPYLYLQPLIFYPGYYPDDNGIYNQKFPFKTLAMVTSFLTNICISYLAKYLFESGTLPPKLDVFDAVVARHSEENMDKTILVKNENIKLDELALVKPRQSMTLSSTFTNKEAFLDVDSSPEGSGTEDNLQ

[18] = target: Cytochrome P450 2C9 (Homo sapiens, UniProt P11712)
[19] = blockers of HIV-1 envelope-mediated cell-cell fusion – cherry-pick, dose response (AID 652057); assay type: functional, cell-based
[20] = HIV-1 AD8 envelope cell-cell fusion blockers – cherry-pick, dose response (AID 652062); assay type: functional, cell-based;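 further: luciferase signal from cell-cell fusion driven by HIV-1 clade B AD8 Env; potency is for inhibitors of fusion seen as a drop in luminescence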

Sequence of Glucose-6-phosphate 1-dehydrogenase (P11413 whole entry): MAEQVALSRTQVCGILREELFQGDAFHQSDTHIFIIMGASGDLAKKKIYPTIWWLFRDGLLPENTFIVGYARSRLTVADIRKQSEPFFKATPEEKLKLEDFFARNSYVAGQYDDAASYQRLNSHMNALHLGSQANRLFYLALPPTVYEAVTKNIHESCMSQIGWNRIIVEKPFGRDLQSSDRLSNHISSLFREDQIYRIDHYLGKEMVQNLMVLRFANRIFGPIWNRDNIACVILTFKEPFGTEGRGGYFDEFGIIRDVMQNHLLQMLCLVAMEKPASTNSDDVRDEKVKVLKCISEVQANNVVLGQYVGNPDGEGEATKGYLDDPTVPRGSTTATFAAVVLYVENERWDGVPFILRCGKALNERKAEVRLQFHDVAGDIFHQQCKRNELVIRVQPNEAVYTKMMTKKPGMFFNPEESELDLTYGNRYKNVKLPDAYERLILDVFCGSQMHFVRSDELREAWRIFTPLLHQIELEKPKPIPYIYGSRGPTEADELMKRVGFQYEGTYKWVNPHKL
Sequence of Cytochrome P450 2C9 (P11712 whole entry, the tested form may be a part): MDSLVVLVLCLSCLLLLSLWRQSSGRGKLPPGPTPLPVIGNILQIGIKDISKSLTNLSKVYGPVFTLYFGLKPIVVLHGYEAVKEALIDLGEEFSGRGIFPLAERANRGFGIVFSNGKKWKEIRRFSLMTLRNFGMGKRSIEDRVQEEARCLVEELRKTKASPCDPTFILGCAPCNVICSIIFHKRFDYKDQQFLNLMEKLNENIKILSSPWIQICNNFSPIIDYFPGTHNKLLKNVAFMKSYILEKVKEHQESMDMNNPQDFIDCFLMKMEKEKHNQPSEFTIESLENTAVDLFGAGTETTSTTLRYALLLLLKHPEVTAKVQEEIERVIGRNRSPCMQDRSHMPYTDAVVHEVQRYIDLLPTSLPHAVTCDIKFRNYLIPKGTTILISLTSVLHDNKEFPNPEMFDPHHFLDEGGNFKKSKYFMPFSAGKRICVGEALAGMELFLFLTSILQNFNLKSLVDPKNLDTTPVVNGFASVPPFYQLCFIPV
Sequence of Protein-tyrosine kinase 2-beta (Q14289 whole entry): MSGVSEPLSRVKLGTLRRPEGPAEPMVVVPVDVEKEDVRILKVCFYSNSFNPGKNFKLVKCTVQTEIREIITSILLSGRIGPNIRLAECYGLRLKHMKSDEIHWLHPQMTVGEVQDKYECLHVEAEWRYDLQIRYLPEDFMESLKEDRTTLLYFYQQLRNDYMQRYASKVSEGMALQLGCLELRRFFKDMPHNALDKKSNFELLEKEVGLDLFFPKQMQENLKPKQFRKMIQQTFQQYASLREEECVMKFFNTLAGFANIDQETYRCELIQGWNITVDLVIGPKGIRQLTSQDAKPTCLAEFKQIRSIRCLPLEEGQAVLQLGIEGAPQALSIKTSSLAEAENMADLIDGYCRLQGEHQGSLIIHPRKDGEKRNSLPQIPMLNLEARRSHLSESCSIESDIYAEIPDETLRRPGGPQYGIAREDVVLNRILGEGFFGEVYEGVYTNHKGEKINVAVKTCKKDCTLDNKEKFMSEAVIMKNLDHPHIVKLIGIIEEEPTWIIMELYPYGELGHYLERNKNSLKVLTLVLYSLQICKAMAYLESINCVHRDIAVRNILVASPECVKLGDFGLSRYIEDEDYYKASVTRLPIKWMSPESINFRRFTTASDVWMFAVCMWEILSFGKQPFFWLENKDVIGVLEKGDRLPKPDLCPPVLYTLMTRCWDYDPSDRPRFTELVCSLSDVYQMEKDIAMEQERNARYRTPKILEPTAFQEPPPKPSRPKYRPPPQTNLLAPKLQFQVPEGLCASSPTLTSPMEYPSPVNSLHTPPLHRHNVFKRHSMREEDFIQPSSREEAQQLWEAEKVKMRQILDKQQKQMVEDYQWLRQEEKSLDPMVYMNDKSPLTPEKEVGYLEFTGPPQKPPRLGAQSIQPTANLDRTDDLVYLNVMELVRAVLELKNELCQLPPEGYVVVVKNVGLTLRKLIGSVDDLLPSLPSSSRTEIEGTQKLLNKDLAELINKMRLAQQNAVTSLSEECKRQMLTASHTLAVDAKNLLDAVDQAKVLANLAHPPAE

With COc1nnc(-c2ccc(N3CCCCC3)c(NC(C)=O)c2)c2ccccc12 the IC50 [1] was > 69.5 µM (not active).
With CC(C)CC(NC(=O)CCl)c1ccccc1 (centres undefined) the AC50 [2] was 320 µM (active), the EC50 [3] was 4.29 µM (active) and the CC50 [4] was > 40 µM (active).
For CCOC(=O)c1cccc(C2=C(CNC(=O)c3cccnc3)[C@H]3CC[C@@H](C2)N3Cc2ccccc2)c1, the IC50 [5] was 35.3 µM (inactive).
For CN(C)c1ccc(NC(=S)N2CCN(c3ncc(C(F)(F)F)cc3Cl)CC2)cc1, the EC50 [6] was 2.66 µM (active).
For COc1cccc(C2(c3cccc(OC)c3)CC2C(=O)Nc2ccc(F)cc2)c1 (centres undefined), the IC50 [7] was > 80 µM (inactive).
In the case of C=CCc1c(C)nc(S)c(C#N)c1C, the IC50 [7] is reported as > 80 µM (inactive).
With CSc1cccc(NS(=O)(=O)c2ccc3c(c2)CCN3C(C)=O)c1 the EC50 [8] was 2.42 µM (active), the IC50 [9] was 10.8 µM (active) and the IC50 [10] was > 20 µM (inactive). For the same compound, the IC50 [11] was 7.07 µM (active), the AC50 [12] was 1.49 µM (active) and the AC50 [13] was 2.79 µM (active).
For O=C(CNc1ccc2c(c1)OCO2)N/N=C\c1cn(Cc2ccccc2)c2ccccc12, the EC50 [14] was 9.09 µM (active), the EC50 [15] was 10.5 µM (active) and the EC50 [16] was 6.5 µM (active). The IC50 [7] was > 80 µM (inactive).
For Cc1ccc(C(=O)N/C(=C/C=C/c2ccccc2)C(=O)NCc2ccco2)cc1, the IC50 [17] was 17.4 µM (active) and the AC50 [18] was 10 µM (inconclusive).
In the case of C[C@@H]1CN([C@@H](C)CO)C(=O)c2cccc(NS(=O)(=O)c3cccs3)c2O[C@@H]1CN(C)Cc1ccc(C(F)(F)F)cc1, the AC50 [19] is reported as 2.04 µM (active) and the AC50 [20] is reported as 16.7 µM (active).
In the case of CC1(C)CC2CC(C)(CN2C(=O)COC(=O)c2nnc(O)c3ccccc23)C1 (centres undefined), the IC50 [5] is reported as 10.7 µM (active).
For COc1ccc2c(c1OC)C(=O)N1c3ccccc3C(=O)N(c3ccccc3)C21 (centres undefined), the IC50 [5] was > 79 µM (inactive).
